Measured values as given in patent publication US10653691B2, “Method of promoting remyelination” (Case Western Reserve University, priority 2013, dated 2020).

Assays:
[1] = system: PLP139-151 EAE mouse model; test: PLP139-151-induced relapsing remitting EAE; type: in vivo
Description: Six- to seven-week-old female SJL/J mice were induced with PLP139-151 as for ex vivo recall assays. Mice were allowed to progress to disease onset at day 13 before being randomized into treatment groups (n=10 mice per group). […] This period fully encompassed the acute phase of disease onset followed by remission and the primary disease relapse. Treatments were blinded to the experimenters performing the assays.

mouse OPCs [2] = test: RNA sequencing of drug-treated OPCs; type: cell-based; conditions: 2, 6 or 12 h of drug treatment
Procedure: Cells were lysed directly in 1 ml TRIzol (Invitrogen) and stored at −80° C. Once all samples were collected, samples were thawed on ice and separated with chloroform using Phase Lock Gel tubes (5 PRIME). RNA was isolated using the miRNeasy PlusMini Kit (Qiagen) according to the manufacturer's protocol. One microgram of each sample was then poly-A selected, fragmented, and library prepared using the TruSeqRNA Sample Prep Kit (Illumina) according to the manufacturer's protocol. Samples were indexed using TruSeq adapters. One hundred base-pair paired-end reads were generated for each sample on an Illumina HiSeq 2500 instrument at the Case Western Reserve University Genomics Core facility. Between 5 million and 13 million reads were generated per sample for drug time course experiments. […] EpiSCs, EpiSC OPCs, and in vivo OPCs were sequenced to depths of 51,271,458 reads, 61,072,460 reads, and 62,530,709 reads, respectively. […]
Reference genome files were retrieved from Illumina iGenomes. Reads were aligned to the mm9 genome using Tophat version 2.0.8 with default settings. Expression values of known RefSeq genes were calculated in units of fragments per kilobase per million reads (FPKM) using Cufflinks version 2.0.2. […] The collective list of changed genes for each drug was evaluated with Ingenuity Pathway Analysis (application build 261899, content version 18030641).

[3] = mice, intraperitoneal
Procedure: After 1 or 6 h, […] of plasma was collected then each animal was perfused with PBS. Brains were collected, weighed, and rinsed with PBS. Water (0.5 ml) was added to the brain samples, which were then homogenized. Plasma and brain samples were each diluted fivefold with blank rat plasma. Three hundred microlitres of internal standard solution was added to the samples, vortexed, and centrifuged. Five microlitres of each sample was injected into an API-4000Qtrap mass spectrometer and quantified (Climax Labs).

MOG35-55 EAE mouse model = test: External validation of MOG35-55 EAE at an independent contract laboratory; type: in vivo; conditions: 10 mg/kg, n=12 mice per group
Procedure: EAE was induced by immunizing 10-week-old C57BL/6 female mice with […] injection of […] complete Freund's adjuvant emulsion (Hooke Laboratories). One hour after immunization, mice were given 100 ng of pertussis toxin by 100 μl intraperitoneal injection. A second dose of pertussis toxin was administered the next day. EAE onset was monitored daily and scored using a clinical scale where 0 represented no abnormality; 1, limp tail; 2, limp tail and hind limb weakness; 3, hind limb paralysis; 4, hind limb paralysis and forelimb weakness; and 5, moribund. […] Once mice reached peak of disease ˜day 15; clinical score=3) they were randomized into treatment groups, and drug or vehicle (DMSO in saline) was administered intraperitoneally daily for 10 days (n=12-16 mice per group). […] Experimenters were blinded to the identity of the treatments and animals were scored daily. Cumulative disease scores for each animal were calculated during the treatment period, and a two-tailed t-test compared drug—with vehicle-treated groups. The extent of recovery for each animal was calculated as the difference between the peak disease score and the score at the end of each experiment, and a two-tailed t-test was used to compare each treatment with vehicle. […]

mouse OPCs [4] = test: Global phosphoproteomics of drug-treated OPCs; type: cell-based; conditions: 1 and 5 h after treatment
Procedure: Briefly, for each sample 30 million cells were lysed with 2% SDS solution with protease and phosphatase inhibitor (Thermo Fisher), and detergent was removed on 200 μl of the cell lysate using the FASP cleaning procedure. Each sample was digested by a two-step Lys-C/trypsin proteolytic cleavage and subjected to phospho-enrichment using a commercially available TiO2 enrichment spin tips (Thermo Fisher). LC-MS/MS analysis used a UPLC system (NanoAcquity, Waters) that was interfaced to an Orbitrap ProVelos Elite MS system (Thermo Fisher). Fold-change calculations were determined from peptide intensities for each drug versus DMSO at each time point. Phosphopeptides with greater than twofold change were imported into Ingenuity Pathway Analysis to elucidate signalling pathways perturbed with drug treatment.

ERK1/2 = test: Western blot of ERK1/2 phosphorylation in mouse fibroblasts; type: cell-based; conditions: non-neural cell type, treated for 1 h

| SMILES | efficacy in reducing disease severity ([1]; daily i.p. day 13 to 29, clobetasol 2 mg/kg, miconazole 10 mg/kg, benztropine 10 mg/kg) | T cells within the spleen ([1]; day 29, 2 mg/kg) | modulation of gene expression (mouse OPCs [2]) | crossing of the blood-brain barrier [3] | efficacy to reduce disease severity, independent validation (MOG35-55 EAE mouse model) | pathways affected in phosphoproteomic analysis (mouse OPCs [4]) | ERK1/2 phosphorylation in mouse fibroblasts (ERK1/2) |
| --- | --- | --- | --- | --- | --- | --- | --- |
| C[C@H]1C[C@H]2[C@@H]3CCC4=CC(=O)C=C[C@]4(C)[C@@]3(F)[C@@H](O)C[C@]2(C)[C@@]1(O)C(=O)CCl [clobetasol] | showed efficacy in reducing disease severity | severe reduction of T cells within the spleen | potently modulated genes downstream of multiple nuclear hormone receptors | readily crossed the blood-brain barrier |  |  |  |
| Clc1ccc(COC(Cn2ccnc2)c2ccc(Cl)cc2Cl)c(Cl)c1 (stereo not shown) [miconazole] |  |  |  |  | independently validated the preclinical efficacy | proteins in the mitogen-activated protein (MAP) kinase pathway were most strongly affected | no increase of ERK1/2 phosphorylation |
